Where two headings read alike, the source gives them in different places.
Tests used:
pigs = assay: Adverse effects observed in pigs on overdosing; format: in vivo, pig; details: pigs 40-60 kg body weight
Protocol: Adverse effects observed in pigs. […] These effects were not observed when an overdose of ketodoxapram was administered.

[1] = Plasma trough concentrations in pigs during long-term administration; format: in vivo, pig; details: repeated intravenous doses of doxapram over 18 days, FIG. 9
Protocol: FIG. 9: Plasma trough concentrations of doxapram and its metabolite ketodoxapram in pigs during repetitive intravenous administration of doxapram over 18 days.
FIG. 10: Plasma concentrations of ketodoxapram in pigs during long-term administration of ketodoxapram.
Pigs were administered repeated doses of doxapram over a period of several days.

[2] = oral administration of enteric-coated doxapram; cited from earlier work
in vivo = details: pig
Excerpt: FIG. 4: Quantification of doxapram and ketodoxapram in porcine tissue samples. A) doxapram and ketodoxapram were quantified in brain tissue samples (CNS) and plasma samples of two pigs; B) Concentrations of doxapram and ketodoxapram in brain tissues of pigs treated with doxapram, which was metabolized to ketodoxapram.
FIG. 6: Correlation between plasma concentration and brain concentration of doxapram and its metabolite ketodoxapram in pigs after intravenous administration of doxapram; pig numbers and their group status are indicated (SR: sinus rhythm; AF: atrial fibrillation).
FIG. 7: Correlation between plasma concentration and brain concentration of ketodoxapram in pigs after intravenous administration of ketodoxapram; pig numbers and their group status are indicated (AF: atrial fibrillation).
FIG. 8: Short-term distribution of doxapram and its metabolite ketodoxapram in pigs 30 min after administration of doxapram; pig numbers and their group status are indicated (SR: sinus rhythm).
Quantification of ketodoxapram and doxapram in porcine tissues. In two pigs, doxapram and ketodoxapram were administered and quantified in brain tissue samples (CNS) and plasma samples (FIG. 4A).
(§1) Analysis of doxapram and ketodoxapram in tissues. Mass spectrometry, in particular liquid chromatography tandem-mass spectrometry (LC-MS/MS) with deuterated internal standard, was used to quantify the concentrations of doxapram and ketodoxapram in tissue samples and plasma.
Pigs with sinus rhythm or atrial fibrillation were treated with intravenous doxapram and plasma and brain samples were taken essentially simultaneously.
In two pigs, doxapram and ketodoxapram concentrations were determined in brain and plasma 30 min after intravenous administration.

[3] = Plasma pharmacokinetics in pigs after intravenous doxapram; format: in vivo, pig; details: for Tmax / AUC(0-inf) / Cmax / AUC / half-life: 1.8 mg/kg body weight; for Tmax / AUCextra / AUC(0-inf) / Cmax / AUC / half-life: intravenous bolus of doxapram; for AUC(0-inf) / Cmax / AUC / half-life: pig, plasma, iv; for AUC: read-out: AUC0-n
Excerpt: FIG. 3: Pharmacokinetics of doxapram and ketodoxapram in pigs after intravenous administration. Concentration of doxapram and ketodoxapram, respectively, as measured in plasma samples taken at the indicated time points.
Pharmacokinetics of doxapram and ketodoxapram.
as §1
Doxapram was administered as an intravenous bolus to pigs and plasma concentration was determined over time.

[4] = Pharmacokinetics in a horse after three intravenous doses of doxapram; format: in vivo; details: FIG. 11
Protocol: FIG. 11: Pharmacokinetics of doxapram and its metabolite ketodoxapram in a horse after three intravenous administrations of doxapram.
Three intravenous doses of doxapram were administered to a horse.

TASK-1 = TASK-1 (Homo sapiens, UniProt O14649); assay: TASK-1 current inhibition, voltage clamp in Xenopus laevis oocytes (human channel); format: cell-based; set-up: expressed in transfected cells; host or cells: Xenopus laevis oocytes; details: for Competition between ketodoxapram and doxapram at TASK-1: both compounds present, FIG. 1E; for IC50: voltage clamp, FIG. 1B/1C
Excerpt: FIG. 1: Inhibitory effects of doxapram and ketodoxapram on TASK-1 K-ion channels, recorded by voltage-clamp measurements in Xenopus laevis oocytes. A) Concentration-effect curve for doxapram on porcine TASK-1; B) Concentration-effect curve for doxapram on human TASK-1; C) Concentration-effect curve for ketodoxapram on human TASK-1; […] E) Inhibition of TASK-1 by doxapram, ketodoxapnram, and mixtures thereof. Concentration-response curves for ketodoxapram and doxapram. TASK-1 current inhibition was recorded by voltage clamp measurements in Xenopus laevis oocytes according to standard protocols. […] The ion channels TASK-1 ([…].1), Kv4.3, Kv1.5, Kv2.1, Kir3.1/4, Kv1.4 are predominantly expressed in the atrial myocardium. The ion channel TASK-3 ([…].1) is not expressed in the human myocardium but structurally related to TASK-1 (Schmidt C et al. (2015), Circulation 132(2): 82). Ion channel current inhibition was measured in Xenopus laevis oocytes (FIG. 1 D)). […] To test for competition between ketodoxapram and doxapram, concentration-response curves were determined by measuring TASK-1 current inhibition recorded by voltage clamp measurements in Xenopus laevis oocytes.

Kv1.5 = target: T1, Kv1.5 (Homo sapiens, UniProt P22460); assay: Ion channel current inhibition in Xenopus laevis oocytes, Kv1.5; format: cell-based; details: FIG. 1D
T1 construct: expressed in transfected cells; host or cells: Xenopus laevis oocytes
Excerpt: FIG. 1: Inhibitory effects of doxapram and ketodoxapram on TASK-1 K-ion channels, recorded by voltage-clamp measurements in Xenopus laevis oocytes. A) Concentration-effect curve for doxapram on porcine TASK-1; B) Concentration-effect curve for doxapram on human TASK-1; C) Concentration-effect curve for ketodoxapram on human TASK-1; […] E) Inhibition of TASK-1 by doxapram, ketodoxapnram, and mixtures thereof. The ion channels TASK-1 ([…].1), Kv4.3, Kv1.5, Kv2.1, Kir3.1/4, Kv1.4 are predominantly expressed in the atrial myocardium. The ion channel TASK-3 ([…].1) is not expressed in the human myocardium but structurally related to TASK-1 (Schmidt C et al. (2015), Circulation 132(2): 82). Ion channel current inhibition was measured in Xenopus laevis oocytes (FIG. 1 D)).

[5] = test system: pigs with persistent atrial fibrillation; assay: Cardioversion of pacing-induced persistent atrial fibrillation in pigs; format: in vivo, pig
Protocol: Doxapram and ketodoxapram were successfully applied for cardioversion in pigs. To induce atrial fibrillation in pigs, at first, pacemakers were implanted. Atrial fibrillation was induced by atrial rapid pacing. […] On average, pharmacological cardioversion to sinus rhythm was successful 3 minutes after injection of doxapram or ketodoxapram.

[6] = average of pigs 98, 99, 100, plasma
[7] = average of pigs 98, 99, 100, plasma, read-out: T1/2 (converted)
[8] = pig 98, plasma, read-out: T1/2 (converted)
[9] = pig 99, plasma, read-out: T1/2 (converted)
[10] = pig 100, plasma, read-out: T1/2 (converted)
[11] = pigs, summary of Table 1, read-out: Elimination half-life
[12] = Xenopus laevis oocytes, FIG. 1D
[13] = intravenous 0.5 mg per kg body weight
[14] = iv, Brain concentration as percentage of plasma concentration
[15] = intravenous 1.8 mg per kg body weight

Chain of TASK-1 (O14649 whole entry): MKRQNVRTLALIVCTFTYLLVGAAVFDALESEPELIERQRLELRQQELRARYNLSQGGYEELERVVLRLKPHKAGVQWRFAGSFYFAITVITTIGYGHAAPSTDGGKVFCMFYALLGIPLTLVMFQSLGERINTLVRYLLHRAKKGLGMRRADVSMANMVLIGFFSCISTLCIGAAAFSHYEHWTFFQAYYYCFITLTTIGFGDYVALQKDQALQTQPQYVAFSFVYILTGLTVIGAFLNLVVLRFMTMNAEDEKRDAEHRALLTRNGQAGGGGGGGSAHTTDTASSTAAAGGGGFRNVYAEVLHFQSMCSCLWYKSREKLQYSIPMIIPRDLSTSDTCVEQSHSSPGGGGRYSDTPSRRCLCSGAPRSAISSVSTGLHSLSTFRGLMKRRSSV
T1 sequence (P22460 whole entry): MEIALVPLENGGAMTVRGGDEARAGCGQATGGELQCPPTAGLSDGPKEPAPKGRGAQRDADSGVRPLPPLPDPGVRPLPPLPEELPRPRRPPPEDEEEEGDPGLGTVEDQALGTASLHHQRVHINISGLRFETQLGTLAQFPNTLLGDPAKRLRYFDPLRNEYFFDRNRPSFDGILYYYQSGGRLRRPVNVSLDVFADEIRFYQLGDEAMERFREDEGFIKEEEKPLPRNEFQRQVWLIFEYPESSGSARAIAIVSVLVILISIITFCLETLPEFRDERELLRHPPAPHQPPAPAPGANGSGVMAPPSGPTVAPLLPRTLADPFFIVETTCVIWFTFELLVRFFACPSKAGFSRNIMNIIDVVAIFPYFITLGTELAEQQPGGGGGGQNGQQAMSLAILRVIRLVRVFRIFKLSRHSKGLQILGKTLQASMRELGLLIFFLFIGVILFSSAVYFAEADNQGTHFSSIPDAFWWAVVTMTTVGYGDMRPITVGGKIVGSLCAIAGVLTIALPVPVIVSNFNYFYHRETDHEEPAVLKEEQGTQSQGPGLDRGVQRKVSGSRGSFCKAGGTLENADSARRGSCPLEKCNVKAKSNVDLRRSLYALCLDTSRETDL

Row | SMILES | Central nervous adverse effects (pigs) | Course of plasma trough concentrations [1] | Concentrations of doxapram and ketodoxapram in plasma relative to each other [2] | Plasma concentrations of doxapram and ketodoxapram relative to each other (in vivo) | Tmax ([3]; pig 98, plasma) | AUCextra [3, 6] | AUCextra ([3]; pig 98, plasma) | AUCextra ([3]; pig 99, plasma) | AUCextra ([3]; pig 100, plasma) | AUC(0-inf) [3, 6] | Cmax [3, 6] | AUC [3, 6] | half-life [3, 7] | AUC(0-inf) ([3]; pig 98, plasma) | Cmax ([3]; pig 98, plasma) | AUC ([3]; pig 98, plasma) | half-life [3, 8] | AUC(0-inf) ([3]; pig 99, plasma) | Cmax ([3]; pig 99, plasma) | AUC ([3]; pig 99, plasma) | also measured
1 | CCN1CC(CCN2CCOCC2=O)C(c2ccccc2)(c2ccccc2)C1=O (stereo not drawn) [ketodoxapram, 4-(2-(1-ethyl-5-oxo-4,4-diphenyl-3-pyrrolidinyl)ethyl)-3-morpholinone] | not observed | initial accumulation phase | about equal | similar | 1 h | 6.99% | 4.65% | 12.36% | 3.96% | 308 ng·h/mL | 47.9 ng/mL | 282 ng·h/mL | 2.81 h | 157 ng·h/mL | 31.8 ng/mL | 149 ng·h/mL | 2.59 h | 504 ng·h/mL | 63.5 ng/mL | 442 ng·h/mL | Concentration in brain tissue compared with doxapram in the same tissue (in vivo): several orders of magnitude lower; Crossing of the blood-brain barrier compared with doxapram (in vivo): much less effectively than doxapram; Brain concentration as percentage of the corresponding doxapram concentration (in vivo; iv): 0.2-1.7%; half-life [3, 9]: 3.48 h; AUC(0-inf) ([3]; pig 100, plasma): 265 ng·h/mL; Cmax ([3]; pig 100, plasma): 48.3 ng/mL; AUC ([3]; pig 100, plasma): 254 ng·h/mL; half-life [3, 10]: 2.36 h; half-life [3, 11]: 2 to 3 h; Initial metabolite accumulation phase [4]: 4 to 5 days; Plasma concentration as percentage of parent compound doxapram [4]: about 10%; Effect on TASK-1 compared with doxapram (TASK-1; [12]): significantly stronger than the effect of doxapram; Most strongly inhibited ion channel among TASK-1, TASK-3, Kv4.3, Kv1.5, Kv2.1, Kir3.1/4, Kv1.4 (TASK-1; [12]): TASK-1 was the most strongly inhibited ion channel; Competition between ketodoxapram and doxapram at TASK-1 (TASK-1): stronger affinity to TASK-1; IC50 (TASK-1; Xenopus laevis oocytes): 1250 nM; Inhibition of ion channel Kv1.5 (Kv1.5): not inhibited; Cardioversion of persistent atrial fibrillation [5, 13]: sufficient for cardioversion in all tested animals; Time to cardioversion to sinus rhythm after injection, on average [5, 13]: 3 min
2 | CCN1CC(CCN2CCOCC2)C(c2ccccc2)(c2ccccc2)C1=O (stereo not drawn) [doxapram, 1-ethyl-4-(2-morpholin-4-ylethyl)-3,3-diphenyl-pyrrolidin-2-one] | clear signs of central nervous adverse effects | initial accumulation phase | about equal | similar | 0 h | 0.80% | 0.61% | 1.53% | 0.26% | 2950 ng·h/mL | 4090 ng/mL | 2930 ng·h/mL | 2.12 h | 2200 ng·h/mL | 2310 ng/mL | 2180 ng·h/mL | 1.92 h | 3180 ng·h/mL | 5060 ng/mL | 3130 ng·h/mL | Accumulation in the brain relative to ketodoxapram (in vivo; iv): 60-500 times; Detection of doxapram after ketodoxapram administration (in vivo; iv): not detected; Kp (in vivo; [14]): 0.0024; Kp at 30 min (in vivo; [14]): 0.001; Metabolism of doxapram in pigs ([3]; doxapram 1.8 mg/kg body weight, plasma samples, FIG. 3): rapidly metabolized to ketodoxapram; half-life [3, 9]: 2.65 h; AUC(0-inf) ([3]; pig 100, plasma): 3480 ng·h/mL; Cmax ([3]; pig 100, plasma): 4900 ng/mL; AUC ([3]; pig 100, plasma): 3470 ng·h/mL; half-life [3, 10]: 1.79 h; half-life [3, 11]: 2 to 3 h; Most strongly inhibited ion channel among TASK-1, TASK-3, Kv4.3, Kv1.5, Kv2.1, Kir3.1/4, Kv1.4 (TASK-1; [12]): TASK-1 was the most strongly inhibited ion channel; Competition between ketodoxapram and doxapram at TASK-1 (TASK-1): replaced at the ion channel by ketodoxapram; IC50 (TASK-1; Xenopus laevis oocytes): 500 nM; Inhibition of ion channel Kv1.5 (Kv1.5): not inhibited; Cardioversion of persistent atrial fibrillation [5, 15]: sufficient for cardioversion in all tested animals; Time to cardioversion to sinus rhythm after injection, on average [5, 15]: 3 min
